Tested on: HEK293 cells
Test: HEK293 VLCFA-LPC IC50 determination (13C-labeled C26:0 LPC by UHPLC/MS)
Type: cell-based, human
Conditions: Homo sapiens, HEK293, 48 h, average of one or more replicates; 13C-labeled C26:0 LPC, 48 hours; read-out: Average HEK293 IC50
Summary of the method: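 Suspension HEK293 cells (final 0.5 million/mL after mixing with equal volume) incubated 48 hours with compound plus 13C-acetate (1.0 mg/mL in added media), shaking at 37° C. Lipids extracted with hexane/isopropanol or methanol, C13:0 LPC standard. UHPLC/MS of 13C-labeled C26:0 LPC (638.500/104.100 m/z); IC50 by four-parameter fit.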

SMILES | IC50 [nM]
O=C(Nc1ccn(-c2ccc(C(F)(F)F)nc2)n1)C1(c2ccccc2F)CC1 [Compound 315, 1-(2-fluorophenyl)-N-(1-(6-(trifluoromethyl)pyridin-3-yl)-1H-pyrazol-3-yl)cyclopropane-1-carboxamide] | > 5000
O=C(Nc1ccn(-c2cncc(C(F)(F)F)c2)n1)C1(c2ccccc2F)CC1 [Compound 316, 1-(2-fluorophenyl)-N-[1-[5-(trifluoromethyl)-3-pyridyl]pyrazol-3-yl]cyclopropanecarboxamide] | > 5000
COc1ncccc1-n1ccc(NC(=O)C2(c3ccccc3F)CC2)n1 [Compound 317, 1-(2-fluorophenyl)-N-[1-(2-methoxy-3-pyridyl)pyrazol-3-yl]cyclopropanecarboxamide] | > 5000
N#Cc1cncc(-n2ccc(NC(=O)C3(c4ccccc4F)CC3)n2)c1 [Compound 318, N-[1-(5-cyano-3-pyridyl)pyrazol-3-yl]-1-(2-fluorophenyl)cyclopropanecarboxamide] | > 5000
COc1ccc(-n2ccc(NC(=O)C3(c4ccccc4F)CC3)n2)cn1 [Compound 319, 1-(2-fluorophenyl)-N-(1-(6-methoxypyridin-3-yl)-1H-pyrazol-3-yl)cyclopropane-1-carboxamide] | 58
N#Cc1ncccc1-n1ccc(NC(=O)C2(c3ccccc3F)CC2)n1 [Compound 320, N-[1-(2-cyano-3-pyridyl)pyrazol-3-yl]-1-(2-fluorophenyl)cyclopropanecarboxamide] | > 5000
COc1cc(-n2ccc(NC(=O)C3(c4ccccc4F)CC3)n2)cc(OC)c1OC [Compound 321, 1-(2-fluorophenyl)-N-[1-(3,4,5-trimethoxyphenyl)pyrazol-3-yl]cyclopropanecarboxamide] | > 5000
COc1ccc(-n2ccc(NC(=O)C3(c4ccccc4F)CC3)n2)cc1F [Compound 322, N-[1-(3-fluoro-4-methoxy-phenyl)pyrazol-3-yl]-1-(2-fluorophenyl)cyclopropanecarboxamide] | 4000
Cc1cncc(-n2ccc(NC(=O)C3(c4ccccc4F)CC3)n2)c1 [Compound 323, 1-(2-fluorophenyl)-N-[1-(5-methyl-3-pyridyl)pyrazol-3-yl]cyclopropanecarboxamide] | 350
O=C(Nc1ccn(-c2ccnc(C(F)(F)F)c2)n1)C1(c2ccccc2F)CC1 [Compound 324, 1-(2-fluorophenyl)-N-(1-(2-(trifluoromethyl)pyridin-4-yl)-1H-pyrazol-3-yl)cyclopropane-1-carboxamide] | > 5000
O=C(Nc1ccn(-c2cncc(Cl)c2)n1)C1(c2ccccc2F)CC1 [Compound 325, N-[1-(5-chloro-3-pyridyl)pyrazol-3-yl]-1-(2-fluorophenyl)cyclopropanecarboxamide] | 73
N#Cc1ccc(-n2ccc(NC(=O)C3(c4ccccc4F)CC3)n2)cn1 [Compound 326, N-[1-(6-cyano-3-pyridyl)pyrazol-3-yl]-1-(2-fluorophenyl)cyclopropanecarboxamide] | > 5000
COc1cncc(C#N)c1-n1ccc(NC(=O)C2(c3ccccc3F)CC2)n1 [Compound 327, N-[1-(3-cyano-5-methoxy-4-pyridyl)pyrazol-3-yl]-1-(2-fluorophenyl)cyclopropanecarboxamide] | > 5000
O=C(Nc1ccn(-c2ccncc2C(F)(F)F)n1)C1(c2ccccc2F)CC1 [Compound 328, 1-(2-fluorophenyl)-N-[1-[3-(trifluoromethyl)-4-pyridyl]pyrazol-3-yl]cyclopropanecarboxamide] | > 5000
N#Cc1cc(-n2ccc(NC(=O)C3(c4ccccc4F)CC3)n2)ccn1 [Compound 329, N-[1-(2-cyano-4-pyridyl)pyrazol-3-yl]-1-(2-fluorophenyl)cyclopropanecarboxamide] | 3600
COc1nccc(-n2ccc(NC(=O)C3(c4ccccc4F)CC3)n2)n1 [Compound 330, 1-(2-fluorophenyl)-N-[1-(2-methoxypyrimidin-4-yl)pyrazol-3-yl]cyclopropanecarboxamide] | 260
Cc1nccc(-n2ccc(NC(=O)C3(c4ccccc4F)CC3)n2)n1 [Compound 331, 1-(2-fluorophenyl)-N-[1-(2-methylpyrimidin-4-yl)pyrazol-3-yl]cyclopropanecarboxamide] | > 5000
O=C(Nc1ccn(-c2ccncc2Cl)n1)C1(c2ccccc2F)CC1 [Compound 333, N-[1-(3-chloro-4-pyridyl)pyrazol-3-yl]-1-(2-fluorophenyl)cyclopropanecarboxamide] | 950
CC(C)(O)c1cc(-n2ccc(NC(=O)C3(c4ccccc4F)CC3)n2)ccn1 [Compound 334, 1-(2-fluorophenyl)-N-[1-[2-(1-hydroxy-1-methyl-ethyl)-4-pyridyl]pyrazol-3-yl]cyclopropanecarboxamide] | > 5000
N#Cc1cnccc1-n1ccc(NC(=O)C2(c3ccccc3F)CC2)n1 [Compound 335, N-[1-(3-cyano-4-pyridyl)pyrazol-3-yl]-1-(2-fluorophenyl)cyclopropanecarboxamide] | > 5000
COc1nccc(-n2ccc(NC(=O)C3(c4ccccc4F)CC3)n2)c1C#N [Compound 336, N-[1-(3-cyano-2-methoxy-4-pyridyl)pyrazol-3-yl]-1-(2-fluorophenyl)cyclopropanecarboxamide] | > 5000
Cc1cc(-n2ccc(NC(=O)C3(c4ccccc4F)CC3)n2)nc(C)n1 [Compound 337, N-[1-(2,6-dimethylpyrimidin-4-yl)pyrazol-3-yl]-1-(2-fluorophenyl)cyclopropanecarboxamide] | > 5000
COc1ncc(-n2ccc(NC(=O)C3(c4ccccc4F)CC3)n2)cn1 [Compound 338, 1-(2-fluorophenyl)-N-[1-(2-methoxylpyrimidin-5-yl)pyrazol-3-yl]cyclopropanecarboxamide] | > 5000
Cc1ncnc(C)c1-n1ccc(NC(=O)C2(c3ccccc3F)CC2)n1 [Compound 339, N-[1-(4,6-dimethylpyrimidin-5-yl)pyrazol-3-yl]-1-(2-fluorophenyl)cyclopropanecarboxamide] | > 5000
COc1nccc(-n2ccc(NC(=O)C3(c4ccccc4F)CC3)n2)c1C [Compound 340, 1-(2-fluorophenyl)-N-[1-(2-methoxy-3-methyl-4-pyridyl)pyrazol-3-yl]cyclopropanecarboxamide] | > 5000
Cc1ncncc1-n1ccc(NC(=O)C2(c3ccccc3F)CC2)n1 [Compound 341, 1-(2-fluorophenyl)-N-[1-(4-methylpyrimidin-5-yl)pyrazol-3-yl]cyclopropanecarboxamide] | 700

Same assay, conditions: Homo sapiens, HEK293, HEK293 cells; average of one or more replicates; read-out: Average HEK293 IC50

SMILES | IC50 [nM]
CC(C)(C(=O)Nc1ccn(-c2ccccc2)n1)c1ccccc1F [Compound 296, 2-(2-fluorophenyl)-2-methyl-N-(1-phenylpyrazol-3-yl)propanamide] | 1700
O=C(Cn1cccc1)Nc1ccn(-c2ccccc2)n1 [Compound 297, N-(1-phenylpyrazol-3-yl)-2-pyrrol-1-yl-acetamide] | 1800
O=C(Cn1nccn1)Nc1ccn(-c2ccccc2)n1 [Compound 298, N-(1-phenylpyrazol-3-yl)-2-(triazol-2-yl)acetamide] | > 2000
O=C(Cn1nccn1)Nc1ccn(-c2ccnc(F)c2)n1 [Compound 299, N-[1-(2-fluoro-4-pyridyl)pyrazol-3-yl]-2-(triazol-2-yl)acetamide] | 5000
CCC(C)(C(=O)Nc1ccn(-c2ccccc2)n1)c1ccccc1 (stereo not drawn) [Compound 300, 2-methyl-2-phenyl-N-(1-phenylpyrazol-3-yl)butanamide] | 560
O=C(Nc1ccn(-c2cc(F)cc(F)c2)n1)C1(c2ccccc2F)CC1 [Compound 301, N-[1-(3,5-difluorophenyl)pyrazol-3-yl]-1-(2-fluorophenyl)cyclopropanecarboxamide] | 140
Cn1ccnc1CC(=O)Nc1ccn(-c2ccnc(F)c2)n1 [Compound 302, N-[1-(2-fluoro-4-pyridyl)pyrazol-3-yl]-2-(1-methylimidazol-2-yl)acetamide] | > 5000
O=C(Cn1cncn1)Nc1ccn(-c2ccnc(F)c2)n1 [Compound 303, N-[1-(2-fluoro-4-pyridyl)pyrazol-3-yl]-2-(1,2,4-triazol-1-yl)acetamide] | > 5000
O=C(Cc1ccon1)Nc1ccn(-c2ccnc(F)c2)n1 [Compound 304, N-[1-(2-fluoro-4-pyridyl)pyrazol-3-yl]-2-isoxazol-3-yl-acetamide] | > 5000
O=C(Cc1ccon1)Nc1ccn(-c2ccccc2)n1 [Compound 306, 2-isoxazol-3-yl-N-(1-phenylpyrazol-3-yl)acetamide] | > 2000
O=C(Cc1nccs1)Nc1ccn(-c2ccnc(F)c2)n1 [Compound 307, N-[1-(2-fluoro-4-pyridyl)pyrazol-3-yl]-2-thiazol-2-yl-acetamide] | > 2000
O=C(Nc1ccn(-c2cc(F)cc(F)c2)n1)C1(c2ccccc2)CC1 [Compound 308, N-(1-(3,5-difluorophenyl)-1H-pyrazol-3-yl)-1-phenylcyclopropane-1-carboxamide] | 140
Cn1cccc1CC(=O)Nc1ccn(-c2ccnc(F)c2)n1 [Compound 309, N-[1-(2-fluoro-4-pyridyl)pyrazol-3-yl]-2-(1-methylpyrrol-2-yl)acetamide] | > 5000
Cn1ccnc1CC(=O)Nc1ccn(-c2ccccc2)n1 [Compound 311, 2-(1-methylimidazol-2-yl)-N-(1-phenylpyrazol-3-yl)acetamide] | > 5000
O=C(Nc1ccn(-c2ccnc(F)c2)n1)C1(c2ccncc2F)CC1 [Compound 313, 1-(3-fluoro-4-pyridyl)-N-[1-(2-fluoro-4-pyridyl)pyrazol-3-yl]cyclopropanecarboxamide] | 1700
COc1ccc(F)c(C2(C(=O)Nc3ccn(-c4ccnc(F)c4)n3)CC2)c1 [Compound 314, 1-(2-fluoro-5-methoxy-phenyl)-N-[1-(2-fluoro-4-pyridyl)pyrazol-3-yl]cyclopropanecarboxamide] | 57

Reference: patent US20180251431A1 (VERTEX PHARMACEUTICALS INCORPORATED, priority 2016, published 2018)
